Laboratory results from US20240294495A1, “COMPOUNDS THAT MEDIATE PROTEIN DEGRADATION AND METHODS OF USE THEREOF” (Monte Rosa Therapeutics, Inc., priority 2021, published 2024).

How the values were obtained:
CRBN-DDB1 = CRBN-DDB1 (Homo sapiens, UniProt Q96SW2); assay: Compound binding to CRBN by HTRF assay; conditions: CRBN-DDB1 2.5 nM, Cy5-Thalidomide 100 nM probe, 30 min incubation; read-out: HTRF Class (Cereblon binding, HTRF IC50)
Description: Compound activity was monitored in a Homogenous Time-Resolved Fluorescence (HTRF) assay using 1-[5-({2-[2-(2-{[2-(2,6-dioxopiperidin-3-yl)-1,3-dioxo-2,3-dihydro-1H-isoindol-4-yl]oxy}acetamido)ethoxy]ethyl}carbamoyl)pentyl]-3,3-dimethyl-2-[(1E,3E)-5-[(2E)-1,3,3-trimethyl-5-sulfo-2,3-dihydro-1H-indol-2-ylidene]penta-1,3-dien-1-yl]-3H-indol-1-ium-5-sulfonate as a fluorescent probe. Biochemical assays were conducted in Greiner white 384 well HiBase plates (Cat. No 784075-25) in 10 μL total volume. A one pot detection solution of CRBN-DDB1 (2.5 nM), Anti-His Terbium Cryptate Gold (1×, PerkinElmer Cat. #: 61HI2TLB), and Cy5-Thalidomide (100 nM, Tenova Cat.: T52461) was prepared in 20 mM HEPES, 20 mM NaCl, 0.2 mM TCEP, 0.2 mM EDTA, and 0.005% Tween20 was dispensed to each assay plate. Compounds were stored in dry, ambient temperatures at 10 mM. A 10-point, 1:3 dilution series was prepared from 10 mM stock concentrations in Echo-compatible LDV plates. 10 nL of each compound dilution series was dispensed into assays wells using an Echo 650 (Labcyte inc. USA). 10 nL of 10 mM Lenalidomide was transferred into the active-control wells for the assay and 10 nL of DMSO was transferred into the neutral-control wells. The assay was then allowed to incubate for 30 min at ambient temperature after transferring compound. Plate measurements were taken on a Pherastar FSX (BMG Labtech, Germany) using the HTRF Red filter (Ex. 337 nm, em1: 620 nm, em2: 665 nm) (Flashes: 50, Integration time: 60-400 us, Z-height: 10 mm, Ratio-multiplier: 10,000). The HTRF signal was then subsequently normalized to the neutral and active controls. Analysis and IC50 values were derived using KNIME analytics (KNIME Zurich) transformation and fitting within Collaborative Drug Discovery (Collaborative Drug Discovery USA). Ki was derived from the geometric mean of the IC50 values using the Cheng-Prustoff transformation.
(§1) In Table 2, each compound is assigned a class (HTRF class) indicating the ability for Cereblon binding by means of their HTRF IC50 values according to Example 3: A, B or C. According to the code, A represents an IC50 value of <100 nM, B represents an IC50 value>100 nM and <1000 nM, C represents an IC50 value>1000 nM. IF Class assigns each compound a code indicating the ability for GSPT1 degradation: A, B or C. According to the code, A represents a DC50 value of <30 nM, B represents a DC50 value>30 nM and <300 nM and C represents a DC50 value of >300 nM.

GSPT1 = target: T1, GSPT1 (Homo sapiens, UniProt P15170+Q96SW2); assay: Immunofluorescence assay for GSPT1 degradation in CAL-51 cells; assay type: cell-based; conditions: 6 h treatment, read-out: IF Class (GSPT1 degradation, DC50)
T1 construct: CAL-51 cells were purchased from DSMZ (cat. Number ACC302); endogenous in cells; host or cells: CAL-51 (DSMZ ACC302)
T1 sequence (P15170 whole entry): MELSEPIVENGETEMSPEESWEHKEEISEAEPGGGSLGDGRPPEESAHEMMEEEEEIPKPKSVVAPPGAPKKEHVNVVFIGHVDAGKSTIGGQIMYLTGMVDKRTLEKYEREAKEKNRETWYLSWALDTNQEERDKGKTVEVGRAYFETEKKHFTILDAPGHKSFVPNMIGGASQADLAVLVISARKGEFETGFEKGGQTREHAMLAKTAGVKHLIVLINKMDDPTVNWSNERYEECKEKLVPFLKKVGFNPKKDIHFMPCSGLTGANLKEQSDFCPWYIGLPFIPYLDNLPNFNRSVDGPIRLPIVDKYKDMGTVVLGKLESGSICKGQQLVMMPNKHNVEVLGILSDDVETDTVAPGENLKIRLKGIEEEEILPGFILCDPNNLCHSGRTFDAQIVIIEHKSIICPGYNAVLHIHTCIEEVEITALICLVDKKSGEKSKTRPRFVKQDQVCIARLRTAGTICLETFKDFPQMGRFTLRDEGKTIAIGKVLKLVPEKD
T1 sequence (Q96SW2 whole entry): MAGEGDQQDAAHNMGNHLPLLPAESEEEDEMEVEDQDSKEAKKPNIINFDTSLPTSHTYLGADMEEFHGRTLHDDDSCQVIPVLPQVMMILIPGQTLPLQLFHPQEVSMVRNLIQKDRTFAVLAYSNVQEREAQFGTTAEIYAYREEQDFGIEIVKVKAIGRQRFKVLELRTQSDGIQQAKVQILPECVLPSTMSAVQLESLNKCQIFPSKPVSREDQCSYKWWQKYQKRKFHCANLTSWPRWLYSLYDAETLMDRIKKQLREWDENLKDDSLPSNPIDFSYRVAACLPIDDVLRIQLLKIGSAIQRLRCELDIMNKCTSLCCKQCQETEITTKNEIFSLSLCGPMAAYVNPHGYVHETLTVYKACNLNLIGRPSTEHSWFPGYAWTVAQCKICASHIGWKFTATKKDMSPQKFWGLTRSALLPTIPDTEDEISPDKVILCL
T1 sequence (Q16531 2-1140 partner limits assumed): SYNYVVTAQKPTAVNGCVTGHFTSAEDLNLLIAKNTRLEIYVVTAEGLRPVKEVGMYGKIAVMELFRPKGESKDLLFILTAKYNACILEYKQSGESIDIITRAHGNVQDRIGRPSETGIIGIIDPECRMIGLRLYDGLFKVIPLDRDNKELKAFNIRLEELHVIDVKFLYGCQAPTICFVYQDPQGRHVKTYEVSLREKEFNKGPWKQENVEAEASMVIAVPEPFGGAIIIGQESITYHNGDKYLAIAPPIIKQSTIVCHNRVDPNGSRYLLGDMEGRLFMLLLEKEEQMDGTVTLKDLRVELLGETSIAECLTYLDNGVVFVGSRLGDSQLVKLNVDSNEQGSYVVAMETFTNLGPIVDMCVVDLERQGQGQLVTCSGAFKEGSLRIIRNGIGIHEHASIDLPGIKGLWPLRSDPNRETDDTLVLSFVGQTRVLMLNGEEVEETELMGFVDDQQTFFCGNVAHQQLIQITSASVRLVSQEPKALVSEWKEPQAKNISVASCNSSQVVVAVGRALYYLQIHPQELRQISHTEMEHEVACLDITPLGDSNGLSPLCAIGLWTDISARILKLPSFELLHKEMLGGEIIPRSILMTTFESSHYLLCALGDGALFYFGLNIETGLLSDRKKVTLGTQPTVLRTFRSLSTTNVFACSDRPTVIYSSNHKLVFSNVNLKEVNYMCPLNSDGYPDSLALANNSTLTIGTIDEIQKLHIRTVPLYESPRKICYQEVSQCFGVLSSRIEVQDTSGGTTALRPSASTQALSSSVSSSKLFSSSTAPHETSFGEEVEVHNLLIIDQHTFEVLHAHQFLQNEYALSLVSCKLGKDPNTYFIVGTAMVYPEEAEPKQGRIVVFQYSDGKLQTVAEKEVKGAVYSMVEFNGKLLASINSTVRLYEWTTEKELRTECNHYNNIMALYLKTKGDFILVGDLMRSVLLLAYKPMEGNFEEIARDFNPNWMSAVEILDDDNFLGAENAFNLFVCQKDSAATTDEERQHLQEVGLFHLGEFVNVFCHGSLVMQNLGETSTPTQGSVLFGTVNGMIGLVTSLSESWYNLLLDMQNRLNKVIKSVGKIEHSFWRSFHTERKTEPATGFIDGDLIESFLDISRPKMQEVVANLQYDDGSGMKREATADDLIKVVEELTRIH
Description: The representative compounds were tested in an immunofluorescence assay for their activity to degrade GSPT1. CAL-51 cells were purchased from DSMZ (cat. Number ACC302), sub-cultured in 90% Dulbecco's MEM (4.5 g/L glucose, Gibco 11965)+10% heat inactivated FBS (BioConcept, 2-01F136I) and incubated at 37° C., 5% CO2. For the assay imaging microtiter plate Cell Carrier 96 Ultra (Perkin Elmer 6055302) were pre-coated with Fibronectin (Sigma F085, 30 μl at 0.2 μg/mL) in PBS (100 μL, Gibco 14190) for 45 min at room temperature, rinsed with PBS and CAL-51 cells (30K cells/well) were plated and let to adhere overnight. Cells were treated with compounds typically using a serial dilution ranging from 30 μM to 0.1 nM for 6 h. Compounds were stored at 10 mM DMSO stocks. Vehicle (DMSO), positive (CC-885, 10 μM) and rescue controls (positive control plus 0.2 μM bortezomib) were also included at this stage. Cells were subsequently rinsed with PBS and fixed in 10% Formalin solution (50 μl, Sigma HT5011)) for 20 min at room temperature. Following three consecutive PBS washes (100 μL), cells were permeabilized in 0.1% Triton X-100 in PBS (Sigma 93443, 50 μl) for 15 min at room temperature. Following three further PBS washes, 50 μl blocking buffer (1% BSA, Sigma A4503, in PBS) was added for 45 min for signal-to noise reduction. Primary antibody (human GSPT1, Sigma HPA052488) was diluted in blocking buffer (dil.1/300, 35 μL/well) and incubated with the cells overnight at 4° C. After three PBS washes, Alexa-fluor 488 coupled secondary antibodies (Invitrogen, A32731, dil.1/1000), Alexa-fluor 647-Phalloidin (Invitrogen, A22287, dil.1/200) and DAPI (Thermo, #62248, dil.1/1000) were diluted in blocking buffer and incubated with the samples for 2 h at room temperature. After three final PBS washes, samples were conserved in 100 μL PBS in the dark, until measurement. Image acquisition was performed on the Operetta High-Content Imager (Perkin-Elmer). Fluorescence intensity of […] (GSPT1), Alexa-Fluor 647 (Actin) and DAPI (Nucleus) were measured. For the determination of GSPT1 DC50 values, a custom algorithm implemented in the PerkinElmer image analysis software Harmony-Acapella® was developed. After user-defined setting of adjustment parameters, the analysis was run identically without human intervention for all image fields. DAPI staining of the nuclei was used to determine the location of cells using standard nuclei detection modules. Segmentation artifacts were removed by threshold-based filters for area, roundness and intensity. The outline of the cells was determined analogously from the sum of the normalized, smoothed DAPI and Actin channel, starting from each nucleus. The Alexa-Fluor 488 (GSPT1) signal intensity in each cell was finally measured, in order to obtain a Mean intensity per cell. GSPT1 degradation (DC50) was calculated after normalization to controls and data import in CDD vault Database, using non-linear regression.
as §1

CRBN-DDB1, sequence (Q96SW2 whole entry): as the sequence (Q96SW2 whole entry) above
CRBN-DDB1, sequence (Q16531 whole entry partner): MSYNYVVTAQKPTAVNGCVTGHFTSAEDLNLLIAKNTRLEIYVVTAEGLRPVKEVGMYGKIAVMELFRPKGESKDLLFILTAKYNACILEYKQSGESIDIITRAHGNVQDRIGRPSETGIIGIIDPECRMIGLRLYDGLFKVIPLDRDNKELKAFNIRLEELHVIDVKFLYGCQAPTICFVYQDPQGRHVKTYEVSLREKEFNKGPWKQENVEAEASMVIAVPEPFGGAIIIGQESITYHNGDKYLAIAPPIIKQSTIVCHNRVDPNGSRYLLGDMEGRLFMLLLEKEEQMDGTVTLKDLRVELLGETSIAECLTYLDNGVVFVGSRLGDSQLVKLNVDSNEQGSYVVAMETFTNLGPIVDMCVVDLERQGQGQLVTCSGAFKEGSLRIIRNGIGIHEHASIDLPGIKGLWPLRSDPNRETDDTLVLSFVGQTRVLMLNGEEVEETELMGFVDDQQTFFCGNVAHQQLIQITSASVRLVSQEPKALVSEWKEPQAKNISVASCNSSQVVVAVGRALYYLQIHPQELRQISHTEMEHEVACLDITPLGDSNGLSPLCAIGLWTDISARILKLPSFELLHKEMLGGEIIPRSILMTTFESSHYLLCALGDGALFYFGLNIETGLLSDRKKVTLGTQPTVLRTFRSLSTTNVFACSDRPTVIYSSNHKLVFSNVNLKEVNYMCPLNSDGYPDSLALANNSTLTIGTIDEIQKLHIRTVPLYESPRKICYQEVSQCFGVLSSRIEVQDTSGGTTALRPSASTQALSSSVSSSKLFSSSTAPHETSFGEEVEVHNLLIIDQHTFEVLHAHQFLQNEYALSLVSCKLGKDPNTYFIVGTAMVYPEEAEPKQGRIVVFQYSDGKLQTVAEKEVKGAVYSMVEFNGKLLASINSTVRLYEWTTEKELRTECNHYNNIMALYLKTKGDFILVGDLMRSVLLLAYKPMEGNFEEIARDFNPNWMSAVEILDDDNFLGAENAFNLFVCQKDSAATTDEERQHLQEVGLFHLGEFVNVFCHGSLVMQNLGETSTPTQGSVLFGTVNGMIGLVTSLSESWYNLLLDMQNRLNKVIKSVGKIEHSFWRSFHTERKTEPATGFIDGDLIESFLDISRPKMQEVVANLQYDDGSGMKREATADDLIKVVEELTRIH

| Structure (SMILES) | IC50 (CRBN-DDB1) [nM] | DC50 (GSPT1) [nM] |
| --- | --- | --- |
| N#Cc1ccc(CC(=O)NC2CN(c3cc(F)c(C4CCC(=O)NC4=O)c(F)c3)C2)c(Cl)c1 (stereo not drawn) [Compound 1, 2-(2-chloro-4-cyanophenyl)-N-(1-(4-(2,6-dioxopiperidin-3-yl)-3,5-difluorophenyl)azetidin-3-yl)acetamide] | 100 to 1000 | > 300 |
| O=C1CCC(c2c(F)cc(N3CC(NC(=O)CC4CCC4)C3)cc2F)C(=O)N1 (stereo not drawn) [Compound 2, 2-cyclobutyl-N-(1-(4-(2,6-dioxopiperidin-3-yl)-3,5-difluorophenyl)azetidin-3-yl)acetamide] | 100 to 1000 | > 300 |
| Cc1cc(NC(=O)CC2CN(c3cc(F)c(C4CCC(=O)NC4=O)c(F)c3)C2)ccc1Cl (stereo not drawn) [Compound 3, N-(4-chloro-3-methylphenyl)-2-(1-(4-(2,6-dioxopiperidin-3-yl)-3,5-difluorophenyl)azetidin-3-yl)acetamide] | 100 to 1000 | < 30 |
| O=C1CCC(c2c(F)cc(N3CC(NC(=O)Cc4cc(Cl)c(F)cc4F)C3)cc2F)C(=O)N1 (stereo not drawn) [Compound 4, 2-(5-chloro-2,4-difluorophenyl)-N-(1-(4-(2,6-dioxopiperidin-3-yl)-3,5-difluorophenyl)azetidin-3-yl)acetamide] | 100 to 1000 | < 30 |
| Cc1cc(F)c(NC(=O)CC2CN(c3cc(F)c(C4CCC(=O)NC4=O)c(F)c3)C2)cc1Cl (stereo not drawn) [Compound 5, N-(5-chloro-2-fluoro-4-methylphenyl)-2-(1-(4-(2,6-dioxopiperidin-3-yl)-3,5-difluorophenyl)azetidin-3-yl)acetamide] | 100 to 1000 | < 30 |
| O=C1CCC(c2c(F)cc(N3CC(CC(=O)Nc4ccc(F)c(OC(F)F)c4)C3)cc2F)C(=O)N1 (stereo not drawn) [Compound 6, N-(3-(difluoromethoxy)-4-fluorophenyl)-2-(1-(4-(2,6-dioxopiperidin-3-yl)-3,5-difluorophenyl)azetidin-3-yl)acetamide] | 100 to 1000 | 30 to 300 |
| Cc1cc(F)cc(CC(=O)NC2CN(c3cc(F)c(C4CCC(=O)NC4=O)c(F)c3)C2)c1 (stereo not drawn) [Compound 7, N-(1-(4-(2,6-dioxopiperidin-3-yl)-3,5-difluorophenyl)azetidin-3-yl)-2-(3-fluoro-5-methylphenyl)acetamide] | 100 to 1000 | > 300 |
| O=C1CCC(c2c(F)cc(N3CC(NC(=O)Cc4cc(F)cc(F)c4)C3)cc2F)C(=O)N1 (stereo not drawn) [Compound 8, 2-(3,5-difluorophenyl)-N-(1-(4-(2,6-dioxopiperidin-3-yl)-3,5-difluorophenyl)azetidin-3-yl) acetamide] | 100 to 1000 | > 300 |
| O=C1CCC(c2c(F)cc(N3CC(CC(=O)Nc4cc(OC(F)(F)F)ccc4F)C3)cc2F)C(=O)N1 (stereo not drawn) [Compound 9, 2-(1-(4-(2,6-dioxopiperidin-3-yl)-3,5-difluorophenyl)azetidin-3-yl)-N-(2-fluoro-5-(trifluoromethoxy)phenyl)acetamide] | 100 to 1000 | < 30 |
| O=C1CCC(c2c(F)cc(N3CC(NC(=O)Cc4ccc(Cl)cn4)C3)cc2F)C(=O)N1 (stereo not drawn) [Compound 10, 2-(5-chloropyridin-2-yl)-N-(1-(4-(2,6-dioxopiperidin-3-yl)-3,5-difluorophenyl)azetidin-3-yl)acetamide] | < 100 | > 300 |
| O=C1CCC(c2c(F)cc(N3CC(NC(=O)Cc4ccc(F)cc4F)C3)cc2F)C(=O)N1 (stereo not drawn) [Compound 11, 2-(2,4-difluorophenyl)-N-(1-(4-(2,6-dioxopiperidin-3-yl)-3,5-difluorophenyl)azetidin-3-yl)acetamide] | 100 to 1000 | < 30 |
| O=C1CCC(c2ccc(N3CC(NC(=O)Cc4ccc(Cl)cc4)C3)cc2Cl)C(=O)N1 (stereo not drawn) [Compound 34, N-(1-(3-chloro-4-(2,6-dioxopiperidin-3-yl)phenyl)azetidin-3-yl)-2-(4-chlorophenyl)acetamide] | – | > 300 |
| O=C1CCC(c2ccc(N3CC(NC(=O)C(F)(F)c4ccc(Cl)cc4)C3)cc2Cl)C(=O)N1 (stereo not drawn) [Compound 35, N-(1-(3-chloro-4-(2,6-dioxopiperidin-3-yl)phenyl)azetidin-3-yl)-2-(4-chlorophenyl)-2,2-difluoroacetamide] | – | > 300 |
| O=C1CCC(c2c(F)cc(N3CC(NC(=O)C(F)(F)c4ccc(Cl)cc4)C3)cc2F)C(=O)N1 (stereo not drawn) [Compound 37, 2-(4-chlorophenyl)-N-(1-(4-(2,6-dioxopiperidin-3-yl)-3,5-difluorophenyl)azetidin-3-yl)-2,2-difluoroacetamide] | – | > 300 |
| Cc1c(Cl)cc(NC(=O)CC2CN(c3cc(F)c(C4CCC(=O)NC4=O)c(F)c3)C2)cc1CN1CCOCC1 (stereo not drawn) [Compound 38, N-(3-chloro-4-methyl-5-(morpholinomethyl)phenyl)-2-(1-(4-(2,6-dioxopiperidin-3-yl)-3,5-difluorophenyl)azetidin-3-yl)acetamide] | – | < 30 |
| O=C1CCC(c2c(F)cc(N3CC(CC(=O)Nc4cccc(OC(F)(F)F)c4)C3)cc2F)C(=O)N1 (stereo not drawn) [Compound 39, 2-(1-(4-(2,6-dioxopiperidin-3-yl)-3,5-difluorophenyl)azetidin-3-yl)-N-(3-(trifluoromethoxy)phenyl)acetamide] | – | 30 to 300 |
| N#Cc1cc(Cl)cc(CC(=O)NC2CN(c3cc(F)c(C4CCC(=O)NC4=O)c(F)c3)C2)c1 (stereo not drawn) [Compound 44, 2-(3-chloro-5-cyanophenyl)-N-(1-(4-(2,6-dioxopiperidin-3-yl)-3,5-difluorophenyl)azetidin-3-yl)acetamide] | – | 30 to 300 |
| O=C1CCC(c2c(F)cc(N3CC(CC(=O)Nc4cc(F)cc(OC(F)F)c4)C3)cc2F)C(=O)N1 (stereo not drawn) [Compound 45, N-(3-(difluoromethoxy)-5-fluorophenyl)-2-(1-(4-(2,6-dioxopiperidin-3-yl)-3,5-difluorophenyl)azetidin-3-yl)acetamide] | – | > 300 |
| O=C1CCC(c2c(F)cc(N3CC(NC(=O)c4cc(Cl)ccc4F)C3)cc2F)C(=O)N1 (stereo not drawn) [Compound 46, 5-chloro-N-(1-(4-(2,6-dioxopiperidin-3-yl)-3,5-difluorophenyl)azetidin-3-yl)-2-fluorobenzamide] | 100 to 1000 | – |
